Measurements taken from PMC7044277 (Nature Communications, 2020).
“And” between values parts separate entries of the source, which are not always exact repeats. Equal values may be shown once.

What was measured:
Format in all cases: cell-based
320 non-olfactory GPCRs [1] = target: T1, 320 non-olfactory GPCRs (Homo sapiens, UniProt P20309)
T1 construct: expressed in transfected cells; host or cells: HTLA cells

320 non-olfactory GPCRs [2] = target: T2, 320 non-olfactory GPCRs (Homo sapiens, UniProt P23945)
T2 construct: expressed in transfected cells; host or cells: HTLA cells
T2 sequence (P23945 18-695): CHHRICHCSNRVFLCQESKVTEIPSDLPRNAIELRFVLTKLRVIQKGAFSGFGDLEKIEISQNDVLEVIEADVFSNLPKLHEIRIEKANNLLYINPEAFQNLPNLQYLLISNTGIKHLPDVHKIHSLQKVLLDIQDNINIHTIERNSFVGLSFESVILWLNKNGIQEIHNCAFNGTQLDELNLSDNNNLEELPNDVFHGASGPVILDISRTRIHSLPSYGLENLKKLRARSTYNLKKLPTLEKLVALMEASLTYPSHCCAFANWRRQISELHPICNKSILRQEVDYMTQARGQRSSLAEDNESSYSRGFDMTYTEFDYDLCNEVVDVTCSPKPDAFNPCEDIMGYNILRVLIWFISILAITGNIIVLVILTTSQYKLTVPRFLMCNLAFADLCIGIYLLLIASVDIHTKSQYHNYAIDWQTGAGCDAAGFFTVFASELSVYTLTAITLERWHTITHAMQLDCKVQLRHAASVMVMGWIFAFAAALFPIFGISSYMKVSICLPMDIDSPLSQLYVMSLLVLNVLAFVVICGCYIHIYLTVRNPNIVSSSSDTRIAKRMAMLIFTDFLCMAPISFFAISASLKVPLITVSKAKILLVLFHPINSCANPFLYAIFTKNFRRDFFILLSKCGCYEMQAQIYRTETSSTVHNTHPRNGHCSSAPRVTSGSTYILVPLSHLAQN

320 non-olfactory GPCRs [3] = target: T3, 320 non-olfactory GPCRs (Homo sapiens, UniProt P25105); conditions: receptor PTAFR; replicate values, Fig_4g
T3 construct: expressed in transfected cells; host or cells: HTLA cells
T3 sequence (P25105 whole entry): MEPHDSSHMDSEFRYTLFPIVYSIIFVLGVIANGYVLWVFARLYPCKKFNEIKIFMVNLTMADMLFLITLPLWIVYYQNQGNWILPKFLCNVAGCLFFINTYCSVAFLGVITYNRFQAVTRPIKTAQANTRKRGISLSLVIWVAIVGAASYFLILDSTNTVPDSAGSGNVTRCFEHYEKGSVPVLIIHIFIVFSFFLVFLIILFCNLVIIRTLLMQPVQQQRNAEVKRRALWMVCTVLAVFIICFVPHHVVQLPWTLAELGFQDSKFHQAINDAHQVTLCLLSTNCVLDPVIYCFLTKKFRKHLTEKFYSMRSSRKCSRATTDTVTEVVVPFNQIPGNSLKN

320 non-olfactory GPCRs [4] = target: T4, 320 non-olfactory GPCRs (Homo sapiens, UniProt Q96LB0); conditions: receptor MRGPRX3; replicate values, Fig_4g
T4 construct: expressed in transfected cells; host or cells: HTLA cells
T4 sequence (Q96LB0 whole entry): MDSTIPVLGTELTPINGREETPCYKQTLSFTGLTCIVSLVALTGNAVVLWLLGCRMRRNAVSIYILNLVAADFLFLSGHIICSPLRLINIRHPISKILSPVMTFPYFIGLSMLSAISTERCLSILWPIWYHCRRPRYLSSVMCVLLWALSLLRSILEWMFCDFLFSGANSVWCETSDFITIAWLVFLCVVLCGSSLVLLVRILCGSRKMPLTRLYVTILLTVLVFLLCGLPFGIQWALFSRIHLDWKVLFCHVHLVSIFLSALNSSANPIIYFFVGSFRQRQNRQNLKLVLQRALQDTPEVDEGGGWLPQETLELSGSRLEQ
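Throughout, for Fold of Basal: compound tested at 1 µM final concentration.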
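Throughout, for GPCRome agonism screen response: fold over basal response of each receptor without drug.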

T1 sequence (P20309 whole entry): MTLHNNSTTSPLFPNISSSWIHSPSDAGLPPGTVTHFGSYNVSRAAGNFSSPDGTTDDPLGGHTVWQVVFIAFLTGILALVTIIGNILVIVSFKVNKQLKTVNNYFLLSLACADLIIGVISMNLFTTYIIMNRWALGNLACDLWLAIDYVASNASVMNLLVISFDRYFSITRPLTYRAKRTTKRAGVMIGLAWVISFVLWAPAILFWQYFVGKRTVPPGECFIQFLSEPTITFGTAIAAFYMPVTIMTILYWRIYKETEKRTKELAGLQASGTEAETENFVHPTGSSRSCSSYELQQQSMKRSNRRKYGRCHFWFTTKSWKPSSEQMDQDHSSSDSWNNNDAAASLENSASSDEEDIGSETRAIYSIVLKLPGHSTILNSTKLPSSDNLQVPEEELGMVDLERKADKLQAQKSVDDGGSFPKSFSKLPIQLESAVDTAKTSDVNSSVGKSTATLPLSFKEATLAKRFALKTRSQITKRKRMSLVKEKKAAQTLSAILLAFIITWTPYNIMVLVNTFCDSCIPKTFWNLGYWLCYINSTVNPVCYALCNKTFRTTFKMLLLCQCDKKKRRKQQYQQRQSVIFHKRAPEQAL

## CCOc1cccc2cc(C(C)NCC3(O)CCCCC3)oc12 (stereo not shown) [O4LE6]
320 non-olfactory GPCRs [1]
  Fold of Basal: 0.7288 and 1.095 and 0.9519 and 0.808
320 non-olfactory GPCRs [2]
  Fold of Basal: 0.5729 and 0.6139 and 0.617 and 0.5943
320 non-olfactory GPCRs [3]
  GPCRome agonism screen response: 0.04948 and 0.5552 and 0.8041
320 non-olfactory GPCRs [4]
  GPCRome agonism screen response: 0.501 and 0.6269 and 0.3987 and 0.4556
